Source: PubChem BioAssay (NCI)
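These data come from cells grown in 96-well plates and exposed to compound for 48 hours at five concentrations. GI50: concentration for 50% inhibition of growth. The concentration for full growth arrest is given as TGI.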

What was measured:
Assay in all cases: DTP human tumour cell line panel, 48 h
NCI-H23 lung = system: NCI-H23 lung
SK-MEL-2 melanoma = system: SK-MEL-2 melanoma
HOP-18 NSCLC = system: HOP-18 NSCLC
DMS 114 small cell lung = system: DMS 114 small cell lung
SNB-75 CNS = system: SNB-75 CNS
DLD-1 colon = system: DLD-1 colon
786-0 renal = system: 786-0 renal
LXFL 529 NSCLC = system: LXFL 529 NSCLC
XF 498 CNS = system: XF 498 CNS
MOLT-4 leukemia = system: MOLT-4 leukemia
HOP-62 NSCLC = system: HOP-62 NSCLC
OVCAR-5 ovarian = system: OVCAR-5 ovarian
SN12C renal = system: SN12C renal
NCI-H226 lung = system: NCI-H226 lung
SK-OV-3 ovarian = system: SK-OV-3 ovarian
COLO 205 colon = system: COLO 205 colon
MALME-3M melanoma = system: MALME-3M melanoma
SF-268 CNS = system: SF-268 CNS
K-562 leukemia = system: K-562 leukemia
NCI-H460 lung = system: NCI-H460 lung
M19-MEL melanoma = system: M19-MEL melanoma
CCRF-CEM leukemia = system: CCRF-CEM leukemia
CAKI-1 renal = system: CAKI-1 renal
M14 melanoma = system: M14 melanoma
OVCAR-8 ovarian = system: OVCAR-8 ovarian
RXF 393 renal = system: RXF 393 renal
NCI-H522 lung = system: NCI-H522 lung
SK-MEL-28 melanoma = system: SK-MEL-28 melanoma
EKVX NSCLC = system: EKVX NSCLC
SNB-19 CNS = system: SNB-19 CNS
OVCAR-3 ovarian = system: OVCAR-3 ovarian
SNB-78 CNS = system: SNB-78 CNS
SR leukemia = system: SR leukemia
UACC-62 melanoma = system: UACC-62 melanoma
TK-10 renal = system: TK-10 renal
UACC-257 melanoma = system: UACC-257 melanoma
HCC-2998 colon = system: HCC-2998 colon
OVCAR-4 ovarian = system: OVCAR-4 ovarian
HT29 colon = system: HT29 colon
U251 CNS = system: U251 CNS
HCT-116 colon = system: HCT-116 colon
HL-60(TB) leukemia = system: HL-60(TB) leukemia
IGROV1 ovarian = system: IGROV1 ovarian
SW-620 colon = system: SW-620 colon
UO-31 renal = system: UO-31 renal
LOX IMVI melanoma = system: LOX IMVI melanoma
KM20L2 colon = system: KM20L2 colon
SF-539 CNS = system: SF-539 CNS
A549 NSCLC = system: A549 NSCLC
RPMI-8226 leukemia = system: RPMI-8226 leukemia
DMS 273 small cell lung = system: DMS 273 small cell lung
ACHN renal = system: ACHN renal
SF-295 CNS = system: SF-295 CNS
HCT-15 colon = system: HCT-15 colon
KM12 colon = system: KM12 colon
SK-MEL-5 melanoma = system: SK-MEL-5 melanoma
RXF-631 renal = system: RXF-631 renal
HOP-92 NSCLC = system: HOP-92 NSCLC

OCC(O)C(O)C(O)c1nn(-c2ccccc2)c2nc3cc(Cl)c(Cl)cc3nc12 (stereo unspecified)
TGI (NCI-H23 lung): > 100 µM
TGI (SK-MEL-2 melanoma): 98 µM
TGI (HOP-18 NSCLC): > 100 µM
TGI (DMS 114 small cell lung): > 100 µM
TGI (SNB-75 CNS): 47.8 µM
TGI (DLD-1 colon): > 100 µM
TGI (786-0 renal): > 100 µM
TGI (LXFL 529 NSCLC): > 100 µM
TGI (XF 498 CNS): 69.3 µM
TGI (MOLT-4 leukemia): 87.6 µM
TGI (HOP-62 NSCLC): > 100 µM
TGI (OVCAR-5 ovarian): 83.6 µM
TGI (SN12C renal): > 100 µM
TGI (NCI-H226 lung): > 100 µM
TGI (SK-OV-3 ovarian): > 100 µM
TGI (COLO 205 colon): > 100 µM
TGI (MALME-3M melanoma): 77.7 µM
TGI (SF-268 CNS): > 100 µM
TGI (K-562 leukemia): 44.1 µM
TGI (NCI-H460 lung): > 100 µM
TGI (M19-MEL melanoma): > 100 µM
TGI (CCRF-CEM leukemia): > 100 µM
TGI (CAKI-1 renal): 56.7 µM
TGI (M14 melanoma): 41.1 µM
TGI (OVCAR-8 ovarian): > 100 µM
TGI (RXF 393 renal): 47.7 µM
TGI (NCI-H522 lung): > 100 µM
TGI (SK-MEL-28 melanoma): > 100 µM
TGI (EKVX NSCLC): > 100 µM
TGI (SNB-19 CNS): > 100 µM
TGI (OVCAR-3 ovarian): > 100 µM
TGI (SNB-78 CNS): > 100 µM
TGI (SR leukemia): > 100 µM
TGI (UACC-62 melanoma): > 100 µM
TGI (TK-10 renal): > 100 µM
TGI (UACC-257 melanoma): > 100 µM
TGI (HCC-2998 colon): 98.4 µM
TGI (OVCAR-4 ovarian): > 100 µM
TGI (HT29 colon): 57 µM
TGI (U251 CNS): > 100 µM
TGI (HCT-116 colon): > 100 µM
TGI (HL-60(TB) leukemia): 91.2 µM
TGI (IGROV1 ovarian): > 100 µM
TGI (SW-620 colon): > 100 µM
TGI (UO-31 renal): > 100 µM
TGI (LOX IMVI melanoma): > 100 µM
TGI (KM20L2 colon): > 100 µM
TGI (SF-539 CNS): 38.5 µM
TGI (A549 NSCLC): > 100 µM
TGI (RPMI-8226 leukemia): > 100 µM
TGI (DMS 273 small cell lung): > 100 µM
TGI (ACHN renal): > 100 µM
TGI (SF-295 CNS): > 100 µM

COc1cc(/C=C\c2ccc(Br)cc2)cc(OC)c1OC
TGI (SK-MEL-2 melanoma): > 100 µM
TGI (DMS 114 small cell lung): 69.1 µM
TGI (DLD-1 colon): > 100 µM
TGI (786-0 renal): 13.7 µM
TGI (LXFL 529 NSCLC): > 100 µM
TGI (MOLT-4 leukemia): 0.326 µM
TGI (HOP-62 NSCLC): 23.9 µM
TGI (HCT-15 colon): 34.7 µM
TGI (OVCAR-5 ovarian): 96.8 µM
TGI (SN12C renal): > 100 µM
TGI (SK-OV-3 ovarian): > 100 µM
TGI (COLO 205 colon): 1.21 µM
TGI (MALME-3M melanoma): 34.8 µM
TGI (SF-268 CNS): 54 µM
TGI (K-562 leukemia): 36.8 µM
GI50 (M19-MEL melanoma): 0.363 µM
TGI (M19-MEL melanoma): > 100 µM
TGI (CCRF-CEM leukemia): 13.8 µM
TGI (KM12 colon): > 100 µM
TGI (CAKI-1 renal): 18.5 µM
TGI (SK-MEL-5 melanoma): 0.109 µM
TGI (NCI-H522 lung): 0.00151 µM
TGI (EKVX NSCLC): > 100 µM
TGI (SNB-19 CNS): > 100 µM
TGI (SR leukemia): 10.6 µM
TGI (UACC-62 melanoma): > 100 µM
TGI (UACC-257 melanoma): 11.3 µM
GI50 (HCC-2998 colon): 0.0192 µM
TGI (HCC-2998 colon): 26.8 µM
TGI (OVCAR-4 ovarian): 64.1 µM
TGI (HT29 colon): 15 µM
TGI (U251 CNS): 0.012 µM
TGI (HCT-116 colon): > 100 µM
TGI (HL-60(TB) leukemia): 0.0032 µM
TGI (IGROV1 ovarian): > 100 µM
TGI (SW-620 colon): > 100 µM
TGI (RXF-631 renal): > 100 µM
TGI (SF-539 CNS): 0.00366 µM
TGI (A549 NSCLC): > 100 µM
TGI (RPMI-8226 leukemia): 27.6 µM
TGI (DMS 273 small cell lung): 13.8 µM
TGI (ACHN renal): > 100 µM
TGI (HOP-92 NSCLC): > 100 µM
